PubChem BioAssay (NCI)
Several values for one entry are separate records, joined by “and”; a condition that tells them apart may be missing. Equal values may be shown once.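 Results reflect a 48-hour exposure of cells in 96-well plates to compound at five concentrations. GI50 marks 50% less growth. The concentration for full growth arrest is given as TGI.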

Columns and labels:
Assay in all cases: NCI tumour cell line growth inhibition, 48 h
OVCAR-5 ovarian = test system: OVCAR-5 ovarian
MOLT-4 leukemia = test system: MOLT-4 leukemia
ACHN renal = test system: ACHN renal
MCF7 breast = test system: MCF7 breast
A549 NSCLC = test system: A549 NSCLC
HCT-116 colon = test system: HCT-116 colon
SNB-19 CNS = test system: SNB-19 CNS
SK-OV-3 ovarian = test system: SK-OV-3 ovarian
HOP-92 NSCLC = test system: HOP-92 NSCLC
A498 renal = test system: A498 renal

Compound | GI50 (OVCAR-5 ovarian) | TGI (OVCAR-5 ovarian) | GI50 (MOLT-4 leukemia) | TGI (MOLT-4 leukemia) | GI50 (ACHN renal) | TGI (ACHN renal) | GI50 (MCF7 breast) | TGI (MCF7 breast) | GI50 (A549 NSCLC) | TGI (A549 NSCLC) | GI50 (HCT-116 colon) | TGI (HCT-116 colon) | GI50 (SNB-19 CNS) | TGI (SNB-19 CNS) | GI50 (SK-OV-3 ovarian) | TGI (SK-OV-3 ovarian) | GI50 (HOP-92 NSCLC) | TGI (HOP-92 NSCLC) | GI50 (A498 renal) | TGI (A498 renal)
COc1ccc(-c2nc(Nc3ccc(-c4nc5ccccc5[nH]4)cc3)nc(N3CCOCC3)n2)cc1 | 2.7 µM | 8.9 µM | 2.15 µM | 6.13 µM | 2.55 µM | > 100 µM | 2.59 µM | > 100 µM | 3.24 µM | > 100 µM | 1.9 µM | 3.54 µM | 3.49 µM | > 100 µM | 2.37 µM | 5.53 µM | 1.8 µM | 3.74 µM | 1.52 µM | 3.57 µM
CCCCCCCCCCC/C=C\C[C@H](O)C/C=C1/C(=O)C=C[C@@H]1C/C=C\CCCC(=O)OC | 1.7 µM | 8.58 µM | 0.838 µM | 2.71 µM | 1.23 µM | 4.9 µM | 0.754 µM | 4.08 µM | 5.96 µM | 33.3 µM | 0.734 µM | 1.83 µM | 1.24 µM | 4.58 µM | 5.78 µM | 21.5 µM | 5.43 µM | 11.9 µM | 7.68 µM | 13.6 µM
NS(=O)(=O)c1ccc(NCc2cnc3ccccc3n2)cc1 |  | > 100 µM |  | > 100 µM |  | > 100 µM |  | > 100 µM |  | > 100 µM |  | > 100 µM |  | > 100 µM |  | > 100 µM |  | > 100 µM |  | > 100 µM
O=c1c2c(c3ccccc3n1-c1ccccc1)NC(=S)NC2c1ccc(Cl)cc1 (stereo not drawn) | 8.8 µM | 86.4 µM | 4.17 µM | > 100 µM | 3.92 µM | > 100 µM | 4.75 µM | > 100 µM | 4.25 µM | > 100 µM | 1.96 µM | 7.32 µM | 4.07 µM | > 100 µM | 9.15 µM | 65 µM | 2.38 µM | 19 µM | 2.92 µM | 12.5 µM
Cc1cc2nc3ccc(=[N+](C)C)cc-3sc2cc1N | 1.37 µM and 0.833 µM | 3.95 µM and 22.5 µM and 3.42 µM | 0.237 µM and 0.363 µM |  | 0.844 µM and 1.1 µM |  | 0.326 µM and 0.405 µM | 1.87 µM and 6.05 µM and 2.79 µM | 0.336 µM and 0.381 µM | 1.75 µM and 13.9 µM and 11.2 µM | 0.226 µM and 0.232 µM | 1.2 µM and 5.03 µM and 0.98 µM | 0.782 µM | 10.5 µM and 8.99 µM and 9.55 µM | 1.98 µM and 3.01 µM | 8.08 µM and 34.8 µM and 10.9 µM | 1.44 µM and 1.76 µM | 10.1 µM and 38.3 µM and 11.1 µM | 1.33 µM and 1.93 µM | 14.2 µM and 47.2 µM and 12 µM
Cc1ccc(/C=C/C(=N/N=C(N)N)c2ccccc2)cc1 | 2.97 µM | 12.4 µM | 3.01 µM | 9.1 µM | 4.17 µM | 17.4 µM | 0.465 µM | 12.4 µM | 3.46 µM | 12.5 µM | 3.05 µM | 12.2 µM | 4.21 µM | 17.3 µM | 2.99 µM | 12.2 µM | 2.25 µM | 8.42 µM | 1.04 µM | 4.92 µM
